Patent US20110294853A1, “Bis Aromatic Compounds for Use in the Treatment of Inflammation” (priority 2008, published 2011)

These compounds were tested against T1, Recombinant human LTC4 synthase (Homo sapiens, UniProt Q16873) (assay: In vitro assay of LTC4 synthase inhibition (HPLC or HTRF detection of LTC4)). Conditions: inhibitor concentration 10 μM; percentage inhibitions of LTC4.
T1 construct: made in house; host or cells: Pichia pastoris ('Piccia pastoralis' [sic])
T1 sequence (Q16873 1-150): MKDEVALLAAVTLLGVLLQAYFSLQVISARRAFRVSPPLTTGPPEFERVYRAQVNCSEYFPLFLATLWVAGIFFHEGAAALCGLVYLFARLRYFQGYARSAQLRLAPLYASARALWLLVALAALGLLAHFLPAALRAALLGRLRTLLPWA
Assay type: biochemical
Method: In the assay LTC4 synthase catalyses the reaction where the substrate LTA4 methyl ester is converted to the corresponding LTC4 methyl ester. Recombinant human LTC4 synthase is expressed in Piccia pastoralis and the purified enzyme is dissolved in 25 mM Tris-buffer pH 7.8 and stored at −20° C. The assay is performed in phosphate buffered saline (PBS) pH 7.4, supplemented with 5 mM glutathione (GSH). The reaction is terminated by addition of acetonitrile/MeOH/acetic acid (50/50/1). The assay is performed at rt in 96-well plates. Analysis of the formed LTC4 methyl ester is performed with reversed phase HPLC (Waters 2795 utilizing an Onyx Monolithic C18 column). The mobile phase consists of acetonitrile/MeOH/H2O (32.5/30/37.5) with 1% acetic acid pH adjusted with NH3 to pH 5.6, and absorbance measured at 280 nm with a Waters 2487 UV-detector.
The following is added chronologically to each well: • 1. 50 μL assay buffer, PBS with 5 mM GSH. • 2. 0.5 μL inhibitor in DMSO. • 3. 2 μL LTC4 synthase in PBS. The total protein concentration in this solution is 0.025 mg/mL. Incubation of the plate at room temperature for 10 minutes. • 4. 0.5 μL LTA4 methyl ester. Incubation of the plate at rt for 1 min. • 5. 50 μL stop solution. • 80 μL of the incubation mixture is analysed with HPLC.
Alternatively HTRF detection of LTC4 can be used:
In the assay, LTC4 synthase catalyses the reaction where the substrate LTA4 is converted to LTC4. Recombinant human LTC4 synthase is expressed in Piccia pastoralis and the purified enzyme is dissolved in 25 mM Tris-buffer pH 7.8 supplemented with 0.1 mM glutathione (GSH) and stored at −80° C. The assay is performed in phosphate buffered saline (PBS) pH 7.4 and 5 mM GSH in 384-well plates.
The following is added chronologically to each well:
1. 48 μL LTC4 synthase in PBS with 5 mM GSH. The total protein concentration in this solution is 0.5 μg/mL. 2. 1 μL inhibitor in DMSO (final concentration 10 μM). 3. Incubation of the plate at rt for 10 min. 4. 1 μL LTA4 (final concentration 2.5 μM). 5. Incubation of the plate at rt for 5 min. 6. 10 μl of the incubation mixture is analysed using HTRF detection.
In the case of `COc1ccc(C(=O)Nc2ccc(CCc3ccc(NC(=O)c4cccc(C(F)(F)F)c4)c(C(=O)O)c3)cc2C(=O)O)cc1` [2:1, 5-{2-[3-Carboxy-4-(4-methoxybenzoylamino)phenyl]ethyl}-2-(3-trifluoromethylbenzoylamino)benzoic acid], the inhibition at 10 µM is reported as 87%.
In the case of `CC(C)(C)c1ccc(C(=O)Nc2ccc(CCc3ccc(NC(=O)c4cccc(C(F)(F)F)c4)c(C(=O)O)c3)cc2C(=O)O)cc1` [2:2, 5-{2-[3-Carboxy-4-(4-tert-butylbenzoylamino)-phenyl]ethyl}-2-(3-trifluoromethylbenzoylamino)benzoic acid], the inhibition at 10 µM is reported as 100%.
`O=C(Nc1ccc(CCc2ccc(NC(=O)c3ccc(C(F)(F)F)cc3)c(C(=O)O)c2)cc1)c1cccc(C(F)(F)F)c1` [2:3, 2-(4-Trifluoromethylbenzoylamino)-5-{2-[4-(3-trifluoromethylbenzoylamino)-phenyl]-ethyl}benzoic acid] was tested, and the inhibition at 10 µM was 85%.
Compound `O=C(Nc1ccc(CCc2ccc(NC(=O)c3cccc(C(F)(F)F)c3)c(C(=O)O)c2)cc1C(=O)O)c1ccc(C(F)(F)F)cc1` [2:4, 5-{2-[3-Carboxy-4-(4-trifluoromethyl-benzoylamino)-phenyl]ethyl}-2-(3-trifluoromethylbenzoylamino)benzoic acid] has an inhibition at 10 µM of 98%.
`O=C(Nc1ccc(C#Cc2ccc(NC(=O)c3ccc(C(F)(F)F)cc3)c(C(=O)O)c2)cc1)c1cccc(C(F)(F)F)c1` [2:5, 2-(4-Trifluoromethylbenzoylamino)-5-[4-(3-trifluoromethylbenzoylamino)-phenylethynyl]-benzoic acid] was tested, and the inhibition at 10 µM was 89%.
`CCCCc1ccc(C(=O)Nc2ccc(OCc3ccc(NC(=O)c4cccc(Cl)c4)c(C(=O)O)c3)cc2C(=O)O)cc1` [3:1, 2-(4-Butylbenzoylamino)-5-[3-carboxy-4-(3-chlorobenzoylamino)benzyloxy]-benzoic acid] gave an inhibition at 10 µM of 100%.
Work on `O=C(Nc1ccc(COc2ccc(NC(=O)c3cccc(Cl)c3)c(C(=O)O)c2)cc1C(=O)O)c1cccc(Cl)c1` [3:2, 2-(3-Chlorobenzoylamino)-5-[3-carboxy-4-(3-chlorobenzoylamino)-benzyloxy]-benzoic acid] yielded an inhibition at 10 µM of 100%.
Compound `CCCCc1ccc(C(=O)Nc2ccc(NC(=O)c3ccc(NC(=O)c4ccc(OC(C)C)cc4)cc3)cc2C(=O)O)cc1` [4:1, 2-(4-Butylbenzoylamino)-5-[4-(4-isopropoxy-benzoylamino)benzoyl-amino]-benzoic acid] has an inhibition at 10 µM of 79%.
Work on `CCCCc1ccc(C(=O)Nc2ccc(NC(=O)c3ccc(NC(=O)c4ccccc4)cc3)cc2C(=O)O)cc1` [4:2, 5-(4-Benzoylaminobenzoylamino)-2-(4-butylbenzoylamino)benzoic acid] yielded an inhibition at 10 µM of 96%.
`CCCCc1ccc(C(=O)Nc2ccc(NC(=O)c3ccc(NS(=O)(=O)c4cccc(Cl)c4C)cc3)cc2C(=O)O)cc1` [4:3, 2-(4-Butylbenzoylamino)-5-[4-(3-chloro-2-methylbenzenesulfonylamino)-benzoylamino]-benzoic acid] was tested, and the inhibition at 10 µM was 100%.
`O=C(O)c1cc(NS(=O)(=O)c2ccc(Oc3ccccc3)cc2)ccc1NS(=O)(=O)c1ccc(OC(F)(F)F)cc1` [5:1, 5-(4-Phenoxyphenylsulfonamido)-2-(4-(trifluoromethoxy)phenylsulfonamido)benzoic acid] gave an inhibition at 10 µM of 100%.
For `CCCCc1ccc(S(=O)(=O)Nc2ccc(NS(=O)(=O)c3ccc(Oc4ccccc4Cl)cc3)cc2C(=O)O)cc1` [5:3, 2-(4-Butylphenylsulfonamido)-5-(4-(2-chloro-phenoxy)-phenylsulfonamido)benzoic acid], the inhibition at 10 µM was 98%.
`CCCCc1ccc(S(=O)(=O)Nc2ccc(NS(=O)(=O)c3ccc(Oc4ccccc4OC)cc3)cc2C(=O)O)cc1` [5:4, 2-(4-Butylphenylsulfonamido)-5-(4-(2-methoxy-phenoxy)phenylsulfonamido)benzoic acid] was tested, and the inhibition at 10 µM was 100%.
`CCCCOc1ccc(S(=O)(=O)Nc2ccc(NS(=O)(=O)c3ccc(Oc4ccccc4Cl)cc3)cc2C(=O)O)cc1` [5:5, 2-(4-Butoxyphenylsulfonamido)-5-(4-(2-chloro-phenoxy)-phenylsulfonamido)benzoic acid] gave an inhibition at 10 µM of 99%.
Work on `CCCCOc1ccc(S(=O)(=O)Nc2ccc(NCc3cccc(Oc4ccc(C(C)(C)C)cc4)c3)cc2C(=O)O)cc1` [6:1, 2-(4-Butoxyphenylsulfonamido)-5-(3-(4-tert-butylphenoxy)benzylamino)benzoic acid] yielded an inhibition at 10 µM of 100%.
`CCCCOc1ccc(S(=O)(=O)Nc2ccc(NCc3cccc(OCc4ccccc4Cl)c3)cc2C(=O)O)cc1` [6:2, 2-(4-Butoxyphenylsulfonamido)-5-(3-(2-chlorobenzyloxy)benzylamino)benzoic acid] showed an inhibition at 10 µM of 100%.
With `O=C(O)c1cc(-c2ccc(NS(=O)(=O)c3ccccc3)c(C(=O)O)c2)ccc1NS(=O)(=O)c1ccccc1` [Example 1:2, 4,4′-bis(phenylsulfonamido)biphenyl-3,3′-dicarboxylic acid] the inhibition at 10 µM was 92%.
Compound `O=C(Nc1ccc(-c2ccc(NC(=O)c3cccc(Cl)c3)c(C(=O)O)c2)cc1C(=O)O)c1cccc(Cl)c1` [Example 1:3, 4,4′-bis(3-chlorobenzamido)biphenyl-3,3′-dicarboxylic acid] has an inhibition at 10 µM of 88%.
`O=C(Nc1cccc(Cl)c1)Nc1ccc(-c2ccc(NC(=O)Nc3cccc(Cl)c3)c(C(=O)O)c2)cc1C(=O)O` [Example 1:4, 4,4′-bis(3-(3-chlorophenyl)ureido)biphenyl-3,3′-dicarboxylic acid] gave an inhibition at 10 µM of 99%.
Compound `O=C(O)c1cc(-c2ccc(NS(=O)(=O)c3cccnc3)c(C(=O)O)c2)ccc1NS(=O)(=O)c1cccnc1` [Example 1:5, 4,4′-bis(pyridine-3-sulfonamido)biphenyl-3,3′-dicarboxylic acid] has an inhibition at 10 µM of 69%.
In the case of `CC(C)(C)c1ccc(C(=O)Nc2ccc(-c3ccc(NC(=O)c4ccc(C(C)(C)C)cc4)c(C(=O)O)c3)cc2C(=O)O)cc1` [Example 1:6, 4,4′-bis(4-tert-butylbenzamido)biphenyl-3,3′-dicarboxylic acid], the inhibition at 10 µM is reported as 100%.
`O=C(Cc1ccc(Cl)cc1)Nc1ccc(-c2ccc(NC(=O)Cc3ccc(Cl)cc3)c(C(=O)O)c2)cc1C(=O)O` [Example 1:7, 4,4′-bis(2-(4-chlorophenyl)acetamido)biphenyl-3,3′-dicarboxylic acid] showed an inhibition at 10 µM of 100%.
`Nc1ccccc1C(=O)Nc1ccc(-c2ccc(NC(=O)c3ccccc3N)c(C(=O)O)c2)cc1C(=O)O` [Example 1:8, 4,4′-bis(2-aminobenzamido)biphenyl-3,3′-dicarboxylic acid] showed an inhibition at 10 µM of 100%.
Work on `Cc1ccc(S(=O)(=O)Nc2ccc(-c3ccc(NS(=O)(=O)c4ccc(C)cc4)c(C(=O)O)c3)cc2C(=O)O)cc1` [Example 1:9, 4,4′-bis(4-methylphenylsulfonamido)biphenyl-3,3′-dicarboxylic acid] yielded an inhibition at 10 µM of 89%.
Compound `O=C(O)c1cc(-c2ccc(NC(=O)c3cccc4ccccc34)c(C(=O)O)c2)ccc1NC(=O)c1cccc2ccccc12` [Example 1:10, 4,4′-bis(1-naphthamido)biphenyl-3,3′-dicarboxylic acid] has an inhibition at 10 µM of 98%.
With `O=C(Nc1ccc(-c2ccc(NC(=O)c3ccccc3)c(C(=O)O)c2)cc1C(=O)O)c1ccccc1` [Example 1:11, 4,4′-bis(benzamido)biphenyl-3,3′-dicarboxylic acid] the inhibition at 10 µM was 95%.
`CC(=O)Oc1ccc(C(=O)Nc2ccc(-c3ccc(NC(=O)c4ccc(OC(C)=O)cc4)c(C(=O)O)c3)cc2C(=O)O)cc1` [Example 1:12, 4,4′-bis(4-acetoxybenzamido)biphenyl-3,3′-dicarboxylic acid] gave an inhibition at 10 µM of 97%.
`CCCCc1ccc(S(=O)(=O)Nc2ccc(NS(=O)(=O)c3ccc(Oc4ccccc4)cc3)cc2C(=O)O)cc1` [Example 5:2, 2-(4-Butylphenylsulfonamido)-5-(4-phenoxyphenylsulfonamido)-benzoic acid] was tested, and the inhibition at 10 µM was 100%.
